Experimental data from US5036070A, “Polycyclic phenalkyl amines as psychotropic agents” (American Home Products Corporation, priority 1990, dated 1991).

Experiments:
[1] = molecular target: T1, dopamine D-2 receptor (Rattus norvegicus, UniProt P61169); assay: Dopamine D-2 receptor binding ([3H]-spiroperidol, homogenized limbic brain tissue)
T1 construct: from tissue; host or cells: homogenized limbic brain tissue
Experimental: High affinity for the dopamine D-2 receptor was established by the standard experimental test procedure of Fields et al., Brain Res., 136, 578 (1977) and Yamamura et al., eds. Neutrotransmitter Receptor Binding, Raven Press, N.Y. (1978) wherein homogenized limbic brain tissue is incubated with ^3 H-spiroperidol and various concentrations of test compound, filtered and washed and shaken with Hydrofluor scintillation cocktail (National Diagnostics) and counted in a Packard 460 CD scintillation counter.

[2] = molecular target: T2, 5-HT1A serotonin receptor (Rattus norvegicus, UniProt P19327); assay: Serotonin 5-HT1A receptor binding (displacement of [3H]-8-OHDPAT); parameters: from tissue; conditions: [3H]-8-OHDPAT displacement
T2 sequence (P19327 1-422): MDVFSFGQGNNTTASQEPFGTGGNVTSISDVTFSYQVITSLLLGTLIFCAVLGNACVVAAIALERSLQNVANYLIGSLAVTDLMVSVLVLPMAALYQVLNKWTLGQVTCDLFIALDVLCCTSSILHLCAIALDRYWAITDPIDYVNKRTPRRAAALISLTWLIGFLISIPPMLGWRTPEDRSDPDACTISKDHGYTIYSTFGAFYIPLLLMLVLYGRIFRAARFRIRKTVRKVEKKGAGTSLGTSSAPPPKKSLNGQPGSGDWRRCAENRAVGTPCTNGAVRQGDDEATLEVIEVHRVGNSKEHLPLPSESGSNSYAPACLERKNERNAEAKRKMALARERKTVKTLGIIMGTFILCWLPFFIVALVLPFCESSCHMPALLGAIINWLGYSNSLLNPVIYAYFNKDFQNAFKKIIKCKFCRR
Excerpt: High affinity for the serotonin 5-HT1A receptor was established by testing the claimed compounds ability to displace [^3 H]-8-OHDPAT (dipropylaminotetralin) from the 5-HT1A serotonin receptor following the procedure of Hall et al., J. Neurochem. 44, 1685 (1985). […] The anxiolytic activity of buspirone is believed to be, at least partially, due to its 5-HT1A receptor affinity (Vander Maclen et al., Eur. J. Pharmacol. 1986, 129 (1-2), 133-130.

[3] = molecular target: T2, 5-HT1A serotonin receptor; conditions: standard for anxiolytic activity; cited from earlier work

T1 sequence (P61169 whole entry): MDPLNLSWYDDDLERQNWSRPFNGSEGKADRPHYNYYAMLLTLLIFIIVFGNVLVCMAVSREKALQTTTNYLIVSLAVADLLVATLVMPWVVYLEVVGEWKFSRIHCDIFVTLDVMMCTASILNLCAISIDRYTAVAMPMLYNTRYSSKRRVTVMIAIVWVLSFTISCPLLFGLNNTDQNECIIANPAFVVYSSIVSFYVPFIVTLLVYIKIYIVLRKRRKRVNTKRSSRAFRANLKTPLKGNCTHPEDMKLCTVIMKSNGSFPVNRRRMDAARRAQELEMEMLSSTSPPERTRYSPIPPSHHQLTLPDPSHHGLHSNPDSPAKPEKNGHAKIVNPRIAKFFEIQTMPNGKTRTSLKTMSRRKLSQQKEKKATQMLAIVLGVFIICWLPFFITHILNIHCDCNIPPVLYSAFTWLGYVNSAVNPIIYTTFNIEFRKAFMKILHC

## c1cnc(N2CCN(CCCOc3ccc4c(c3)CCC4)CC2)nc1 [Example 1]
[1]
  inhibition at 1 µM: 85%
[2]
  inhibition at 1 µM: 91%

## Fc1ccc(C(c2ccc(F)cc2)N2CCN(CCCOc3ccc4c(c3)CCC4)CC2)cc1 [Example 2, 1-[4-[3-[(2,3-Dihydro-1H-indan-5-yl)oxy]propyl]-1-piperazinyl]bis(4-fluorophenyl)methane]
[2]
  inhibition at 1 µM: 43%

## Clc1cncc(N2CCN(CCCOc3ccc4c(c3)CCC4)CC2)n1 [Example 3]
[1]
  inhibition at 1 µM: 82%
[2]
  inhibition at 1 µM: 48%

## c1ccc2c(c1)OCC(CNCCCCOc1ccc3c(c1)CCC3)O2 (stereo not drawn) [Example 4, N-[4-[(2,3-Dihydro-1H-indan-5-yl)oxy]butyl]-2,3-dihydro-1,4-benzodioxan-2-methanamine]
[1]
  inhibition at 1 µM: 97%
[2]
  inhibition at 1 µM: 92%

## c1ccc2c(c1)OCC(CNCCOc1ccc3c(c1)CCC3)O2 (stereo not drawn) [Example 5, N-[2-[(2,3-Dihydro-1H-indan-5-yl)oxy]ethyl]-2,3-dihydro-1,4-benzodioxan-2-methanamine]
[1]
  inhibition at 1 µM: 100%
[2]
  inhibition at 1 µM: 76%

## c1ccc2c(c1)OCC(CNCCCOc1ccc3c(c1)CCC3)O2 (stereo not drawn) [Example 6, N-[3-[(2,3-Dihydro-1H-indan-5-yl)oxy]propyl]-2,3-dihydro-1,4-benzodioxan-2-methanamine]
[1]
  inhibition at 1 µM: 95%
[2]
  inhibition at 1 µM: 99%

## O=C1CC2(CCCC2)CC(=O)N1CCCCN1CCN(c2ncccn2)CC1 [buspirone]
[3]
  affinity for the 5-HT1A serotonin receptor subtype (in words): potent affinity
